Measurements as given in paper PMC9967275, “Screening the Pathogen Box to Discover and Characterize New Cruzain and TbrCatL Inhibitors” (Pathogens, 2023).

Legend:
TbrCatL = molecular target: T1, TbrCatL (Trypanosoma brucei rhodesiense, UniProt Q95PM0); experiment: TbrCatL enzymatic inhibition assay (cleavage of fluorogenic substrate Z-FR-AMC); assay type: biochemical; conditions: for TbrCatL 0’ Inhibition / TbrCatL 10’ Inhibition: sheet "Screening results"
T1 construct: Conor Caffrey (University of California San Diego)
T1 sequence (Q95PM0 entry or part of it): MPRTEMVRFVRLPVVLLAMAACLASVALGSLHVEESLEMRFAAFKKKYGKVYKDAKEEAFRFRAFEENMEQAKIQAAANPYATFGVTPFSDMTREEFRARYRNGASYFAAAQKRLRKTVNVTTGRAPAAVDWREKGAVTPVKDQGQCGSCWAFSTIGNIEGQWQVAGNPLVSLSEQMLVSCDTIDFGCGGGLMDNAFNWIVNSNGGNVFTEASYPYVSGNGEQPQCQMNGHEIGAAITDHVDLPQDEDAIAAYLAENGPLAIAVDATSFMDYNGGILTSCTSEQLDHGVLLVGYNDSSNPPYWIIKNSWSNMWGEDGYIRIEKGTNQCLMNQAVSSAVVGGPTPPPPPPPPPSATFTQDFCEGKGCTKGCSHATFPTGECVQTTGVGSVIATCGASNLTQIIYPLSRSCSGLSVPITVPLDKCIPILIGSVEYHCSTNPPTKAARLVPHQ
Summary of the method: (§1)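 Recombinant enzymes assayed by Z-Phe-Arg-AMC cleavage at 25 °C, fluorescence 340/440 nm over 5–7 min, with 10 min or no enzyme–compound preincubation.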

cruzain = cruzain (Trypanosoma cruzi, UniProt P25779); experiment: biochemical; conditions: for Cruzain 0’ Inhibition / Cruzain 10’ Inhibition: sheet "Screening results"
Sequence of cruzain (P25779 123-337 limits assumed): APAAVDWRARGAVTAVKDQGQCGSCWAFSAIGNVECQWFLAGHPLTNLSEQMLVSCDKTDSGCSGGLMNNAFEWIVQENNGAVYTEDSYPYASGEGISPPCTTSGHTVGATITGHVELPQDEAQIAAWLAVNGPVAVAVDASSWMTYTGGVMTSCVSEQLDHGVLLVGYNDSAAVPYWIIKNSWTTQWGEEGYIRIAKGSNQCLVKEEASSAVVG
Summary of the method: as §1

[1] = 0’ (no pre-incubation), sheet Screening results
[2] = 10’ (pre-incubation), sheet Screening results
[3] = 0’ (pre-incubation time), Pathogen Box screening results
[4] = 10’ (pre-incubation time), Pathogen Box screening results
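Note: at 5 µM compound concentration.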

## COc1ccc2nccc(NC(=O)C3CCN(CCc4ccc(Cl)cc4)CC3)c2n1 [MMV688844]
TbrCatL; 0’ (pre-incubation time)
  TbrCatL 0’ Inhibition: 4%
TbrCatL; 10’ (pre-incubation time)
  TbrCatL 10’ Inhibition: -1.5%
cruzain; 0’ (pre-incubation time)
  Cruzain 0’ Inhibition: 1.4%
cruzain; 10’ (pre-incubation time)
  Cruzain 10’ Inhibition: -1.1%

## O=C(N[C@H](Cc1ccccc1)C(=O)Nc1ccccc1N1CCOCC1)c1cccs1 [MMV688845]
TbrCatL; 0’ (pre-incubation time)
  TbrCatL 0’ Inhibition: -0.3%
TbrCatL; 10’ (pre-incubation time)
  TbrCatL 10’ Inhibition: 2.3%
cruzain; 0’ (pre-incubation time)
  Cruzain 0’ Inhibition: 1%
cruzain; 10’ (pre-incubation time)
  Cruzain 10’ Inhibition: 4.5%

## Cc1ccccc1CN1CCC(O)(c2ccc(Cl)c(C(F)(F)F)c2)CC1 [MMV688846]
TbrCatL; [1]
  TbrCatL Inhibition 0’: 2.5%
TbrCatL; [2]
  TbrCatL Inhibition 10’: -17%
cruzain; [1]
  Cruzain Inhibition 0’: 10%
cruzain; [2]
  Cruzain Inhibition 10’: 3%

## CC(C)(C)n1nc(Cc2ccc(F)c(Cl)c2)c2c(N)ncnc21 [MMV688852]
TbrCatL; [1]
  TbrCatL Inhibition 0’: -2.7%
TbrCatL; [2]
  TbrCatL Inhibition 10’: -13%
cruzain; [1]
  Cruzain Inhibition 0’: 6%
cruzain; [2]
  Cruzain Inhibition 10’: 0.5%

## CCOc1ccc2cc(-c3nn(C(C)(C)C)c(N)c3C(N)=O)cnc2c1 [MMV688853]
TbrCatL; [1]
  TbrCatL Inhibition 0’: 7%
TbrCatL; [2]
  TbrCatL Inhibition 10’: -4%
cruzain; [1]
  Cruzain Inhibition 0’: 5.4%
cruzain; [2]
  Cruzain Inhibition 10’: 4%

## CCOc1ccc2cc(-c3nn(CC4CCN(C)CC4)c4ncnc(N)c34)ccc2c1 [MMV688854]
TbrCatL; [1]
  TbrCatL Inhibition 0’: 2.7%
TbrCatL; [2]
  TbrCatL Inhibition 10’: -5%
cruzain; [1]
  Cruzain Inhibition 0’: 27%
cruzain; [2]
  Cruzain Inhibition 10’: 11%

## CN1CCN(c2cc(-c3ccc(F)cc3)nc(-c3ccncc3)n2)CC1 [MMV688888]
TbrCatL; [1]
  TbrCatL Inhibition 0’: 19%
TbrCatL; [2]
  TbrCatL Inhibition 10’: 9%
cruzain; [1]
  Cruzain Inhibition 0’: 18%
cruzain; [2]
  Cruzain Inhibition 10’: 14%

## Clc1ccc(CCNc2cc(-c3ccccc3)nc3ncnn23)cc1 [MMV688889]
TbrCatL; [1]
  TbrCatL Inhibition 0’: 20%
TbrCatL; [2]
  TbrCatL Inhibition 10’: 13%
cruzain; [1]
  Cruzain Inhibition 0’: 15%
cruzain; [2]
  Cruzain Inhibition 10’: 14%

## COc1cc(Br)cc2cc(C(=O)Nc3cccc(C(F)(F)F)c3)c(=O)oc12 [MMV688891]
TbrCatL; 0’ (pre-incubation time)
  TbrCatL 0’ Inhibition: 0%
TbrCatL; 10’ (pre-incubation time)
  TbrCatL 10’ Inhibition: -2.6%
cruzain; 0’ (pre-incubation time)
  Cruzain 0’ Inhibition: -4.4%
cruzain; 10’ (pre-incubation time)
  Cruzain 10’ Inhibition: -0.7%

## OC[C@H]1O[C@@H](n2c3ccc(Cl)cc3c3c(-c4cc5ccccc5o4)ncnc32)C(O)[C@H]1O (stereo partly drawn) [MMV688921]
TbrCatL; 0’ (pre-incubation time)
  TbrCatL 0’ Inhibition: 5.5%
TbrCatL; 10’ (pre-incubation time)
  TbrCatL 10’ Inhibition: 4.4%
cruzain; 0’ (pre-incubation time)
  Cruzain 0’ Inhibition: 4.7%
cruzain; 10’ (pre-incubation time)
  Cruzain 10’ Inhibition: 11%

## CCc1nn(C)c(C(=O)NCc2ccc(Oc3ccc(C)cc3)cc2)c1Cl [MMV688934]
TbrCatL; [1]
  TbrCatL Inhibition 0’: 18%
TbrCatL; [2]
  TbrCatL Inhibition 10’: 14%
cruzain; [1]
  Cruzain Inhibition 0’: 15%
cruzain; [2]
  Cruzain Inhibition 10’: 7.4%

## O=C(c1ccco1)N(CCCn1ccnc1)c1nc2c(Cl)cccc2s1 [MMV688936]
TbrCatL; [1]
  TbrCatL Inhibition 0’: 19%
TbrCatL; [2]
  TbrCatL Inhibition 10’: 0.6%
cruzain; [1]
  Cruzain Inhibition 0’: 5.6%
cruzain; [2]
  Cruzain Inhibition 10’: -0.2%

## CCOc1ccc(-c2nc(CNCCc3ccc(F)cc3)cs2)cc1 [MMV688938]
TbrCatL; 0’ (pre-incubation time)
  TbrCatL 0’ Inhibition: 3%
TbrCatL; 10’ (pre-incubation time)
  TbrCatL 10’ Inhibition: -3.6%
cruzain; 0’ (pre-incubation time)
  Cruzain 0’ Inhibition: 6%
cruzain; 10’ (pre-incubation time)
  Cruzain 10’ Inhibition: 12%

## Cc1ccc2nc(C)c(-c3ccn(Cc4ccccc4)n3)n2c1 [MMV688939]
TbrCatL; [3]
  TbrCatL Inhibition 0’: -0.4%
TbrCatL; [4]
  TbrCatL Inhibition 10’: -9%
cruzain; [3]
  Cruzain Inhibition 0’: -1.4%
cruzain; [4]
  Cruzain Inhibition 10’: -4%

## COc1cc(CN2CCC3(C=Cc4ccccc43)CC2)cc2c1OCO2 [MMV688941]
TbrCatL; 0’ (pre-incubation time)
  TbrCatL 0’ Inhibition: -3.2%
TbrCatL; 10’ (pre-incubation time)
  TbrCatL 10’ Inhibition: -4%
cruzain; 0’ (pre-incubation time)
  Cruzain 0’ Inhibition: 1.7%
cruzain; 10’ (pre-incubation time)
  Cruzain 10’ Inhibition: 6%

## CC(C)(C)C(O)C(Oc1ccc(-c2ccccc2)cc1)n1cncn1 (stereo not drawn) [MMV688942]
TbrCatL; [1]
  TbrCatL Inhibition 0’: 13%
TbrCatL; [2]
  TbrCatL Inhibition 10’: -1.4%
cruzain; [1]
  Cruzain Inhibition 0’: 14%
cruzain; [2]
  Cruzain Inhibition 10’: 9%

## CC1COC(Cn2cncn2)(c2ccc(Oc3ccc(Cl)cc3)cc2Cl)O1 (stereo not drawn) [MMV688943]
TbrCatL; [1]
  TbrCatL Inhibition 0’: 15%
TbrCatL; [2]
  TbrCatL Inhibition 10’: 4%
cruzain; [1]
  Cruzain Inhibition 0’: 13%
cruzain; [2]
  Cruzain Inhibition 10’: 10%

## Cc1cc(NC(=O)c2ccc(Oc3ccc(Cl)cc3O)o2)no1 [MMV688955]
TbrCatL; 0’ (pre-incubation time)
  TbrCatL 0’ Inhibition: -6%
TbrCatL; 10’ (pre-incubation time)
  TbrCatL 10’ Inhibition: -12%
cruzain; 0’ (pre-incubation time)
  Cruzain 0’ Inhibition: -9%
cruzain; 10’ (pre-incubation time)
  Cruzain 10’ Inhibition: -13%

## CC(=O)OC[C@H]1O[C@@H]([S-])[C@H](OC(C)=O)[C@@H](OC(C)=O)[C@@H]1OC(C)=O.CC[PH+](CC)CC.[Au] [MMV688978]
TbrCatL; [3]
  TbrCatL Inhibition 0’: -13%
TbrCatL; [4]
  TbrCatL Inhibition 10’: -63%
cruzain; [3]
  Cruzain Inhibition 0’: -20%
cruzain; [4]
  Cruzain Inhibition 10’: -71%

## CCc1cc(=O)n(C)c(SC(C)C(=O)Nc2ccc(F)cc2)n1 (stereo not drawn) [MMV688980]
TbrCatL; 0’ (pre-incubation time)
  TbrCatL 0’ Inhibition: -11%
TbrCatL; 10’ (pre-incubation time)
  TbrCatL 10’ Inhibition: -14%
cruzain; 0’ (pre-incubation time)
  Cruzain 0’ Inhibition: -3.8%
cruzain; 10’ (pre-incubation time)
  Cruzain 10’ Inhibition: -0.6%

## CCCCCCCCCCCCCCCCOP(=O)([O-])OCC[N+](C)(C)C [MMV688990]
TbrCatL; [3]
  TbrCatL Inhibition 0’: -2.4%
TbrCatL; [4]
  TbrCatL Inhibition 10’: -12%
cruzain; [3]
  Cruzain Inhibition 0’: -0.1%
cruzain; [4]
  Cruzain Inhibition 10’: 0.6%

## CC(=O)Oc1ccccc1C(=O)Nc1ncc([N+](=O)[O-])s1 [MMV688991]
TbrCatL; [1]
  TbrCatL Inhibition 0’: 10%
TbrCatL; [2]
  TbrCatL Inhibition 10’: 3.7%
cruzain; [1]
  Cruzain Inhibition 0’: 8%
cruzain; [2]
  Cruzain Inhibition 10’: 4%

## CNC1C(OC2C(OC3C(O)C(O)C(N=C(N)N)C(O)C3N=C(N)N)OC(C)C2(O)C=O)OC(CO)C(O)C1O (stereo not drawn) [MMV688994]
TbrCatL; [1]
  TbrCatL Inhibition 0’: 1.1%
TbrCatL; [2]
  TbrCatL Inhibition 10’: 1.5%
cruzain; [1]
  Cruzain Inhibition 0’: -4%
cruzain; [2]
  Cruzain Inhibition 10’: -2.3%

## C[C@@H]1[C@H](O)[C@@H](C)/C=C/C=C/C=C/C=C/C=C/C=C/C=C/[C@H](O[C@@H]2O[C@H](C)[C@@H](O)[C@H](N)[C@@H]2O)C[C@@H]2O[C@](O)(C[C@@H](O)C[C@@H](O)[C@H](O)CC[C@@H](O)C[C@@H](O)CC(=O)O[C@H]1C)C[C@H](O)[C@H]2C(=O)O [MMV689000]
TbrCatL; 0’ (pre-incubation time)
  TbrCatL 0’ Inhibition: 11%
TbrCatL; 10’ (pre-incubation time)
  TbrCatL 10’ Inhibition: 9%
cruzain; 0’ (pre-incubation time)
  Cruzain 0’ Inhibition: 10%
cruzain; 10’ (pre-incubation time)
  Cruzain 10’ Inhibition: 10%

## Cc1ccc(S(=O)(=O)Nc2ccc(CN3CCN(C(=O)c4cccc(C#N)c4)CC3)cc2)cc1 [MMV689028]
TbrCatL; [1]
  TbrCatL Inhibition 0’: -0.6%
TbrCatL; [2]
  TbrCatL Inhibition 10’: -0.3%
cruzain; [1]
  Cruzain Inhibition 0’: -0.6%
cruzain; [2]
  Cruzain Inhibition 10’: 8%

## COc1ccc(S(=O)(=O)Nc2ccc(CN3CCN(C(=O)c4cccc(C#N)c4)CC3)cc2)cc1 [MMV689029]
TbrCatL; 0’ (pre-incubation time)
  TbrCatL 0’ Inhibition: 0.7%
TbrCatL; 10’ (pre-incubation time)
  TbrCatL 10’ Inhibition: 1.2%
cruzain; 0’ (pre-incubation time)
  Cruzain 0’ Inhibition: 2.5%
cruzain; 10’ (pre-incubation time)
  Cruzain 10’ Inhibition: 5.4%

## Clc1ccc(CN2CCN(C3=NCCN3)CC2)cc1Cl [MMV689060]
TbrCatL; [1]
  TbrCatL Inhibition 0’: -5%
TbrCatL; [2]
  TbrCatL Inhibition 10’: 2%
cruzain; [1]
  Cruzain Inhibition 0’: -3%
cruzain; [2]
  Cruzain Inhibition 10’: -0.1%

## CC(=O)Nc1ccc(-c2noc(CC3CCCN(Cc4cccc(F)c4C)C3)n2)cc1 (stereo not drawn) [MMV689061]
TbrCatL; [1]
  TbrCatL Inhibition 0’: 0%
TbrCatL; [2]
  TbrCatL Inhibition 10’: 0.8%
cruzain; [1]
  Cruzain Inhibition 0’: 1.2%
cruzain; [2]
  Cruzain Inhibition 10’: 3.6%

## FC(F)(F)c1ccc(N(c2cccnc2)C2CCN(c3ccc(C(F)(F)F)cn3)CC2)cc1 [MMV689243]
TbrCatL; 0’ (pre-incubation time)
  TbrCatL 0’ Inhibition: -9%
TbrCatL; 10’ (pre-incubation time)
  TbrCatL 10’ Inhibition: -5%
cruzain; 0’ (pre-incubation time)
  Cruzain 0’ Inhibition: 2.3%
cruzain; 10’ (pre-incubation time)
  Cruzain 10’ Inhibition: -3%

## O=C([C@@H](c1ccc(Cl)cc1)c1cccnc1)N1CCN(c2ccc(C(F)(F)F)cc2)CC1 [MMV689244]
TbrCatL; 0’ (pre-incubation time)
  TbrCatL 0’ Inhibition: 6.4%
TbrCatL; 10’ (pre-incubation time)
  TbrCatL 10’ Inhibition: -2.8%
cruzain; 0’ (pre-incubation time)
  Cruzain 0’ Inhibition: 2.7%
cruzain; 10’ (pre-incubation time)
  Cruzain 10’ Inhibition: -3.2%

## Nc1ncnc2c1ncn2C[C@@H](O)[C@@H](O)C(=O)O [MMV689255]
TbrCatL; [1]
  TbrCatL Inhibition 0’: 3.4%
TbrCatL; [2]
  TbrCatL Inhibition 10’: -1.3%
cruzain; [1]
  Cruzain Inhibition 0’: 18%
cruzain; [2]
  Cruzain Inhibition 10’: 2%

## CC(c1cc(Cl)cc(Cl)c1)N(C)c1ncc2c(N)nc(N)nc2n1 (stereo not drawn) [MMV689437]
TbrCatL; 0’ (pre-incubation time)
  TbrCatL 0’ Inhibition: -12%
TbrCatL; 10’ (pre-incubation time)
  TbrCatL 10’ Inhibition: 3.6%
cruzain; 0’ (pre-incubation time)
  Cruzain 0’ Inhibition: -3%
cruzain; 10’ (pre-incubation time)
  Cruzain 10’ Inhibition: 9%

## CNc1cc(C)nc(C2CN(C(=O)c3n[nH]c4ccccc34)CCO2)c1 (stereo not drawn) [MMV689709]
TbrCatL; 0’ (pre-incubation time)
  TbrCatL 0’ Inhibition: 8%
TbrCatL; 10’ (pre-incubation time)
  TbrCatL 10’ Inhibition: 3.8%
cruzain; 0’ (pre-incubation time)
  Cruzain 0’ Inhibition: -1.4%
cruzain; 10’ (pre-incubation time)
  Cruzain 10’ Inhibition: 1.3%
